Patent US4367226A, “N-Sugar compounds, compositions and uses thereof” (priority 1980, dated 1983)
Converted amounts (≈) assume the structure as drawn.

Key:
Pseudomonas aeruginosa = test: Broth dilution MIC / antimicrobial test against Pseudomonas aeruginosa (A.T.C.C. 15442); type: cell-based; details: 37°
From the text: (§1) In testing for the anti-microbial activity five different types of organics were selected: Staphyloccoccus aureus, Escherichia coli, Pseudomonas aeruginosa, Candida albicans, and Aspergillus niger. The inclusion of Asperigillus niger and Pseudomonas aeruginosa in the inocula is recommended to ensure a wide range of protection because these ubiquitous organisms grow in a large variety of formulations and relatively resistant to antimicrobial agents. The incidence of contaminated cosmetics has been the subject of several investigations ^(6)(7). Pseudomonas was the predominant organism found.
(§2) One Gram-positive, two Gram-negative bacteria, one each of a yeast and a mold were selected for the test. These were, respectively, Staphylococcus aureus(A.T.C.C. 6538), Escherichia coli(A.T.C.C. 11229), Pseudomonas aeruginosa(A.T.C.C. 15442), Candida albicans(A.T.C.C. 10259), and Aspergillus niger(A.T.C.C. 1015).
(§3) Portions of four or five discrete colonies representative of the organisms to be tested were inoculated into 10.0 ml. of a suitable broth medium and marked accordingly. The inoculated tubes were incubated at 37° for S. aureus, E. coli, and P. aeruginosa, and at 25° for C. albicans and A. niger for 18-24 hours.
(§4) Medium: Trypticase Soy Agar(BBL) was used for bacteria, and Sabouraud Maltose Agar(BBL) for the yeast and the mold.
(§5) Inoculation of agar plates and incubation: A 10 cm. round plastic plate was used for the preparation of medium. Each plate was divided into four areas by marking on the bottom of the plate. The agar plate was streaked by the appropriate inoculation loop. Three thin loopful of inocula were applied for covering the complete agar plate. Approximately 10-15 mg. of compound to be tested was placed at the corresponding area of each inoculated plate. The plates inoculated with S. aureus, E. coli, and P. aeruginosa were incubated at 37° for 24-48 hours, and those incubated with C. albicans and A. niger were incubated at 25° for 48-72 hours. […]

Escherichia coli = test: Broth dilution MIC / antimicrobial test against Escherichia coli (A.T.C.C. 11229); type: cell-based; details: 37°
From the text: as §1, §2, §3, §4, §5

Staphylococcus aureus = test: Broth dilution MIC / antimicrobial test against Staphylococcus aureus (A.T.C.C. 6538); type: cell-based; details: for activity against S. aureus (in words): 37°
From the text: as §1, §2, §3, §4
Inoculation of agar plates and incubation: A 10 cm. round plastic plate was used for the preparation of medium. Each plate was divided into four areas by marking on the bottom of the plate. The agar plate was streaked by the appropriate inoculation loop. Three thin loopful of inocula were applied for covering the complete agar plate. Approximately 10-15 mg. of compound to be tested was placed at the corresponding area of each inoculated plate. The plates inoculated with S. aureus, E. coli, and P. aeruginosa were incubated at 37° for 24-48 hours, and those incubated with C. albicans and A. niger were incubated at 25° for 48-72 hours.
Interpretation and result: After incubation, if a zone of inhibition was visible around the compound placed, the susceptibility of the organism to the compound was considered to be positive. The degree of positiveness of the compound was decided by the size of the zone.
The broth dilution method was chosen for the determination of the MIC. A 10^-1 molar stock solution was prepared by dissolving or suspending the required amount of compound in the sterilized distilled water. The desired number of sterile test tubes were aseptically filled with 9.0 ml. of Trypticase Soy Broth(BBL). 1.0 ml. of the stock solution was added to the first tube and mixed thoroughly. With a sterile pipette, 1.0 ml. was transferred from the first tube to the second tube. […]

bacterial growth = test: Preservative action in cosmetic formulations; details: for preservation against bacterial combination: Examples I and III of U.S. Pat. No. 3,957,970, replacing the 0.05% preservative by an equal amount
From the text: The compositions of this invention are of particular utility in aqueous cosmetic formulations to inhibit bacterial growth. Reference is hereby made to cosmetic formulations as disclosed in the following U.S. Pat. Nos.: (1) 4,159,318 (2) 4,164,564, (3) 4,137,302, (4) 4,148,875, (5) 4,001,141, (6) 4,048,338, (7) 3,919,430 and (8) 3,957,970 as exemplary of formulations with which the present thioureas and thiazoles can be used; thus, Example 4 of U.S. Pat. No. 4,137,302 discloses ethyl p-dimethylaminobenzoate (0.75%).
In Example 6 of U.S. Pat. No. 4,048,338, the 0.18 parts of methyl p-hydroxybenzoate is replaced by equal parts of the compound of Example 10 on the one hand and that of Example 12 on the other hand.
Each of the foregoing U.S. Patents (1) to (8) is hereby incorporated by reference thereto.

Aspergillus niger = test: Broth dilution MIC / antimicrobial test against Aspergillus niger (A.T.C.C. 1015); type: cell-based; details: 25°
From the text: as §1, §2, §3
Medium: Trypticase Soy Agar(BBL) was used for bacteria, and Sabouraud Maltose Agar(BBL) for the yeast and the mold. […]

[1] = LD50 test (acute toxicity, intraperitoneal); type: in vivo, Charles River CD-1 male mice; details: 2000 mg/kg, one mouse
Experimental: The toxicity of some of the compounds was ascertained in an LD50 test.
The LD50 tests were performed for the following compounds; N-β-D-glucopyranosyl-N'-n-butylthiourea, N-β-D-glucopyranosyl-N'-benzylthiourea, N-β-D-glucopyranosyl-piperidine-1-thiocarboxamide, N-β-D-glucopyranosylthiourea, and ethyl 2-(N-β-D-glucopyranosyl)aminothiazole-4-carboxylate. The compounds were administered intraperitoneally dissolved or suspended in normal saline by 20-25 gm Charles River CD-1 male mice.
Two animals received 1000 mg/kg and one animal received 2000 mg/kg. With the exception of the animal given by ethyl 2-(N-β-D-glucopyranosyl)aminothiazole-4-carboxylate at 2000 mg/kg, all animals survived the acute effects and appeared normal after 1 week.

Candida albicans = test: Broth dilution MIC / antimicrobial test against Candida albicans (A.T.C.C. 10259); type: cell-based; details: 25°
From the text: as §1, §2, §3, §4, §5

[2] = Example 6 of U.S. Pat. No. 4,048,338, replacing 0.18 parts of methyl p-hydroxybenzoate by equal parts

Structure (SMILES): OC[C@H]1O[C@@H](NC(=S)N2CCCCC2)[C@H](O)[C@@H](O)[C@@H]1O [Example 11, N-β-D-Glucopyranosylpiperidine-1-thiocarboxamide]
- activity against P. aeruginosa (in words) (Pseudomonas aeruginosa): particularly outstanding activity

Structure (SMILES): OC[C@H]1O[C@@H](NC(=S)NCc2ccccc2)[C@H](O)[C@@H](O)[C@@H]1O [Example 5, N-β-D-Glucopyranosyl-N'-benzylthiourea]
- activity against P. aeruginosa (in words) (Pseudomonas aeruginosa): particularly outstanding activity
- activity against E. coli (in words) (Escherichia coli): particularly outstanding activity

Structure (SMILES): C=CCNC(=S)N[C@@H]1O[C@H](CO)[C@@H](O)[C@H](O)[C@H]1O [Example 10, N-β-D-Glucopyranosyl-N'-allylthiourea]
- activity against S. aureus (in words) (Staphylococcus aureus): particularly outstanding activity
- MIC (Staphylococcus aureus; Staphylococcus aureus, S. aureus A.T.C.C. 6538, broth dilution, 24-48 hours at 37°, read-out: M.I.C. (Minimal Inhibitory Concentration)): 100 µM (≈ 27.8 µg/mL)
- preservative action (bacterial growth; Example 4 of U.S. Pat. No. 4,137,302, in lieu of ethyl p-dimethylaminobenzoate (0.75%)): excellent preservative action
- preservative action (bacterial growth; [2]): excellent preservative action
- preservation against bacterial combination (bacterial growth): excellent preservation against bacterial combination

Structure (SMILES): Br.CCOC(=O)c1csc(N[C@@H]2O[C@H](CO)[C@@H](O)[C@H](O)[C@H]2O)n1 [Example 15, Ethyl 2-(N-β-D-glucopyranosyl)aminothiazole-4-carboxylate hydrobromide]
- activity against A. niger (in words) (Aspergillus niger): not against A. Niger
- activity against P. aeruginosa (in words) (Pseudomonas aeruginosa): broad activities against 4 organisms
- death [1]: dying two days later
- activity against C. albicans (in words) (Candida albicans): broad activities against 4 organisms
- activity against S. aureus (in words) (Staphylococcus aureus): broad activities against 4 organisms
- activity against E. coli (in words) (Escherichia coli): broad activities against 4 organisms
- preservation against bacterial combination (bacterial growth): excellent preservation against bacterial combination

Structure (SMILES): CCCCNC(=S)N[C@@H]1O[C@H](CO)[C@@H](O)[C@H](O)[C@H]1O [Example 2, N-β-D-Glucopyranosyl-N'-n-butylthiourea]
- activity against A. niger (in words) (Aspergillus niger): particularly outstanding activity
- activity against C. albicans (in words) (Candida albicans): particularly outstanding activity

Structure (SMILES): OC[C@H]1O[C@@H](NC(=S)NCc2ccc(Cl)cc2)[C@H](O)[C@@H](O)[C@@H]1O [Example 12, N-β-D-Glucopyranosyl-N'-4-chlorobenzylthiourea]
- activity against C. albicans (in words) (Candida albicans): broad inhibitory activities
- activity against S. aureus (in words) (Staphylococcus aureus): broad inhibitory activities
- activity against E. coli (in words) (Escherichia coli): broad inhibitory activities
- preservative action (bacterial growth; [2]): excellent preservative action
- preservation against bacterial combination (bacterial growth): excellent preservation against bacterial combination
